Laboratory results published in patent publication US12553889B2, “Small molecules targeting the intrinsically disordered structural ensemble of α-synuclein protect against diverse α-synuclein mediated dysfunctions” (The Regents of the University of California, priority 2019, dated 2026).
Entries after “also recorded” stand apart in the source; their conditions may differ.

Molecular target: αSyn (Homo sapiens, UniProt P37840)
Test: αSyn fibrillization assay (Thioflavin T fluorescence)
Type: biochemical
Parameters: made in house; host or cells: E. coli BL21(DE3), pET-21d
Settings: for impact on αSyn fibrillization (thioflavin fluorescence signal): compound at 300 μM, 70 μM αSyn, vs 0.5% DMSO control
Protocol: Fibrillization assays. Prior to each aggregation assay, purified αSyn at 5 mg/mL was treated with 6M guanidine and dialyzed 36 hours in a 3500 MW cutoff Slide-A-lyzer with three changes of 20 mM sodium phosphate and 100 mM NaCl pH 7.4 buffer. αSyn was centrifuged at 130,000 g for 40 minutes in a Beckman Ultracentrifuge to remove seeding species and supernatant used for assays. For initial testing, 60 mM compound in DMSO was diluted to 300 μM in 0.5% DMSO and controls contained equivalent DMSO concentrations. Assay samples contained 20 μM Thioflavin T, filtered through a 0.45 μm Acrodisc filter prior to each assay, 70 μM αSyn in 20 mM sodium phosphate and 100 mM NaCl pH 7.4. One teflon bead, (0.125″ PTFE, Grade 2 polished) was placed in each well of a 96 well black with clear bottom assay plate (Corning) in a total volume of 500 μL. The plate was sealed with Mylar and parafilm, placed at 37° C. in a Tecan F200Pro Plate Reader and shaken at an amplitude of 6 mm for 120 hours continuously except for a brief time during reading of the plate. Thioflavin T fluorescence was detected by excitation at 440 nm and reading emissions at 485 nm each 60 minutes throughout the assay. To generate αSyn seeds for the seeding assays, αSyn at 10 mg/mL was incubated with stirring at 43° C. for 24 hours followed by exhaustive sonication. 1% (by mass) of seeds were added to the fibrillization assay. Samples were plated in quadruplicate, and the replicates averaged for each experiment for plotted data. Data were analyzed in Excel using XL-fit sigmoidal model #600 and when normalized, comparing fluorescence values at 50 hours for compounds as a percentage of DMSO control.
α-Syn for the Fibrillization assay. Wildtype human αSyn was produced from a pET-21d plasmid (Millipore, Burlington, MA) in E. coli BL21(DE3) cells induced by addition of 1 mM […] and incubated at 16° C. overnight. Cells were harvested by centrifugation at 4,000×g for 10 minutes and stored at −80° C. Frozen cells expressing αSyn protein were resuspended in 50 mM Tris, pH 7.5, 1 mM TCEP, 1 mM EDTA, and 1 mM L-Methionine and lysed using a microfluidizer. Lysate was centrifuged at 7000×g for 0.5 hours at 21° C. The supernatant was boiled in a water bath for 15 minutes, cooled on ice and centrifuged at 45,000 g for 30 min. The supernatant was filtered through a 0.2 μm Corning filter and subjected to ion exchange chromatography using a Capto ImpRes Q (GE Healthcare, Upssala, Sweden) anion exchange (IEX) column at ambient temperature. The column was eluted with a gradient of 100 column volumes from 0 to 1M NaCl using an AKTA Explorer 100 Liquid Chromatography System (GE Healthcare, Uppsala, Sweden). Pure αSyn fractions were desalted to 50 mM KPO4, pH 7.5 and 50 mM NaCl using PD-10 columns (GE Healthcare, Chicago, IL) and concentrated to 5 mg/mL or 10 mg/ml (3K MWCO, Amicon Ultra, Millipore, Burlington, MA).
Statistical Analysis of compound activity in Fibrillization assays. For the analyses of compound activity in the αSyn fibrillization assay, the relative fluorescence unit (RFU) data obtained from compounds were compared to those of DMSO, to identify those that are statistically different from DMSO at various time points. Each experiment contained 4 replicates of each compound and of DMSO control. […] A repeated measures analysis of variance was performed on logarithmic transformed data using a linear mixed effects model which included Compound, Time, Replicate (Compound) and Compound*Time. The covariance structure across time that minimized the corrected Akaike Information Criterion (AICC) was used and the Kenward and Roger method was used to determine the appropriate degrees of freedom. Each compound mean was compared to the DMSO mean using Bonferroni multiplicity adjusted t-tests. Statistical analyses were conducted using the MIXED procedure in SAS 9.1 (SAS Institute Inc. Cary, NC, USA). Statistical significance refers to p-value<0.05.

| Structure (SMILES) | impact on αSyn fibrillization (thioflavin fluorescence signal) | inhibition of aggregation when used as control (over 30 synuclein fibrillization experiments) |
| --- | --- | --- |
| CNC(=O)c1cc(O)ccc1N [Compound 576755, 2-amino-5-hydroxy-N-methylbenzamide] | inhibit fibrillization; also recorded: impair fibrillization | robust inhibition of aggregation in all assays |
| CNC(=O)CN(C(=O)Cc1noc2ccccc12)C(C)c1ccc(Cl)cc1 (stereo not shown) [Compound 582032, 2-(benzo[d]isoxazol-3-yl)-N-(1-(4-chlorophenyl)ethyl)-N-(2-(methylamino)-2-oxoethyl)acetamide] | inhibit fibrillization; also recorded: impair fibrillization | – |
| Cc1c(-c2csc(NC(C(N)=O)C3CCNCC3)n2)sc2ccccc12 (stereo not shown) [Compound 573437, 2-((4-(3-methylbenzo[b]thiophen-2-yl)thiazol-2-yl)amino)-2-(piperidin-4-yl)acetamide] | missed by the more variable αSyn fibrillization assay | – |
